Species on record: Rattus norvegicus
Experiment: DrugMatrix - Regimen: Daily Repeat
Format: toxicity, organism-based, Sprague-Dawley
Design: regimen Daily Repeat, gender Male, age 6-8 weeks
Conditions: in vivo, po, route oral GAVAGE, vehicle .5 % CMC; for BASOPHIL / EOSINOPHIL / ERYTHROCYTE COUNT / HEMATOCRIT / HEMOGLOBIN / LEUKOCYTE COUNT / LYMPHOCYTE / MEAN CORPUSCULAR HEMOGLOBIN / MEAN CORPUSCULAR HEMOGLOBIN CONCENTRATION / MEAN CORPUSCULAR VOLUME / MONOCYTE / NEUTROPHIL / PLATELET COUNT: tissue Blood; for ALANINE AMINOTRANSFERASE / ALBUMIN / ALKALINE PHOSPHATASE / ASPARTATE AMINOTRANSFERASE / BLOOD UREA NITROGEN / CHLORIDE / CHOLESTEROL / CREATINE PHOSPHOKINASE / CREATININE / GLUCOSE / PHOSPHORUS / POTASSIUM / SODIUM / TOTAL BILIRUBIN / TOTAL PROTEIN: tissue Plasma
[1] = 0 mg/kg, 72 h, dose level Control, time 3 day
[2] = 0 mg/kg, 120 h, dose level Control, time 5 day
[3] = 38 mg/kg, 72 h, dose level Low, time 3 day

CCCNC(=O)NS(=O)(=O)c1ccc(Cl)cc1 [CHLORPROPAMIDE]
BASOPHIL [1]: 0% | EOSINOPHIL [1]: 0.33% | ERYTHROCYTE COUNT [1]: 6.2 x10E6/uL | HEMATOCRIT [1]: 38.08% | HEMOGLOBIN [1]: 14.92 G/DL | LEUKOCYTE COUNT [1]: 11.13 x10E3/uL | LYMPHOCYTE [1]: 76% | MEAN CORPUSCULAR HEMOGLOBIN [1]: 24.1 pg | MEAN CORPUSCULAR HEMOGLOBIN CONCENTRATION [1]: 39.17 G/DL | MEAN CORPUSCULAR VOLUME [1]: 61.48 fL | MONOCYTE [1]: 3.83% | NEUTROPHIL [1]: 19.83% | PLATELET COUNT [1]: 1327.5 x10E3/uL | ALANINE AMINOTRANSFERASE [1]: 40.17 u/L | ALBUMIN [1]: 4.07 G/DL | ALKALINE PHOSPHATASE [1]: 372 u/L | ASPARTATE AMINOTRANSFERASE [1]: 67.17 u/L | BLOOD UREA NITROGEN [1]: 18.83 mg/dL | CHLORIDE [1]: 105.17 MEQ/L | CHOLESTEROL [1]: 78.17 mg/dL | CREATINE PHOSPHOKINASE [1]: 149.17 u/L | CREATININE [1]: 0.57 mg/dL | GLUCOSE [1]: 185.17 mg/dL | PHOSPHORUS [1]: 11.43 mg/dL | POTASSIUM [1]: 6.78 MEQ/L | SODIUM [1]: 152.83 MEQ/L | TOTAL BILIRUBIN [1]: 0.4 mg/dL | TOTAL PROTEIN [1]: 6.87 G/DL | BASOPHIL [2]: 0% | EOSINOPHIL [2]: 0% | ERYTHROCYTE COUNT [2]: 6.05 x10E6/uL | HEMATOCRIT [2]: 36.55% | HEMOGLOBIN [2]: 14.7 G/DL | LEUKOCYTE COUNT [2]: 11.8 x10E3/uL | LYMPHOCYTE [2]: 86.83% | MEAN CORPUSCULAR HEMOGLOBIN [2]: 24.37 pg | MEAN CORPUSCULAR HEMOGLOBIN CONCENTRATION [2]: 40.32 G/DL | MEAN CORPUSCULAR VOLUME [2]: 60.47 fL | MONOCYTE [2]: 0.83% | NEUTROPHIL [2]: 12.33% | PLATELET COUNT [2]: 1177 x10E3/uL | ALANINE AMINOTRANSFERASE [2]: 41.83 u/L | ALBUMIN [2]: 3.75 G/DL | ALKALINE PHOSPHATASE [2]: 377.5 u/L | ASPARTATE AMINOTRANSFERASE [2]: 60.83 u/L | BLOOD UREA NITROGEN [2]: 16 mg/dL | CHLORIDE [2]: 105.67 MEQ/L | CHOLESTEROL [2]: 67.83 mg/dL | CREATINE PHOSPHOKINASE [2]: 120.33 u/L | CREATININE [2]: 0.6 mg/dL | GLUCOSE [2]: 167.67 mg/dL | PHOSPHORUS [2]: 10.03 mg/dL | POTASSIUM [2]: 6.68 MEQ/L | SODIUM [2]: 150.5 MEQ/L | TOTAL BILIRUBIN [2]: 0.57 mg/dL | TOTAL PROTEIN [2]: 6.25 G/DL | BASOPHIL [3]: 0% | EOSINOPHIL [3]: 0% | ERYTHROCYTE COUNT [3]: 5.72 x10E6/uL | HEMATOCRIT [3]: 35.8% | HEMOGLOBIN [3]: 13.93 G/DL | LEUKOCYTE COUNT [3]: 12.2 x10E3/uL | LYMPHOCYTE [3]: 81% | MEAN CORPUSCULAR HEMOGLOBIN [3]: 24.4 pg | MEAN CORPUSCULAR HEMOGLOBIN CONCENTRATION [3]: 38.9 G/DL | MEAN CORPUSCULAR VOLUME [3]: 62.73 fL | MONOCYTE [3]: 1.67% | NEUTROPHIL [3]: 17.33% | PLATELET COUNT [3]: 1327 x10E3/uL | ALANINE AMINOTRANSFERASE [3]: 39.33 u/L | ALBUMIN [3]: 3.73 G/DL | ALKALINE PHOSPHATASE [3]: 318.67 u/L | ASPARTATE AMINOTRANSFERASE [3]: 61.33 u/L | BLOOD UREA NITROGEN [3]: 14.33 mg/dL | CHLORIDE [3]: 105.67 MEQ/L | CHOLESTEROL [3]: 77.33 mg/dL | CREATINE PHOSPHOKINASE [3]: 126.33 u/L | CREATININE [3]: 0.57 mg/dL | GLUCOSE [3]: 180.33 mg/dL | PHOSPHORUS [3]: 11.27 mg/dL | POTASSIUM [3]: 6.7 MEQ/L | SODIUM [3]: 151.33 MEQ/L | TOTAL BILIRUBIN [3]: 0.33 mg/dL | TOTAL PROTEIN [3]: 6.07 G/DL

From ChEMBL document CHEMBL3885881, “DrugMatrix”
